{"source": "ChEMBL document CHEMBL5042483", "about": "“Discovery and Mechanism of SARS-CoV-2 Main Protease Inhibitors” (J Med Chem, 2022)", "key": {"SARS-CoV-2 [1]": {"system": "SARS-CoV-2", "test": "(§1) Antiviral activity against SARS-CoV-2 USA_WA1/2020 infected in human iPSC derived lung organoids assessed as reduction in viral RNA in intracellular fraction at 5 uM pretreated for 2 hrs with compound followed by viral infection for 2 hrs then followed by washout and replacement with fresh medium and measured after 72 hrs by qRT-PCR analysis relative to control", "format": "functional, organism-based", "details": "Severe acute respiratory syndrome coronavirus 2, time 76.0 hrs"}, "SARS-CoV-2 [2]": {"system": "SARS-CoV-2", "test": "as §1, with “cell supernatant” for “intracellular fraction”", "format": "functional, organism-based", "details": "Severe acute respiratory syndrome coronavirus 2, time 76.0 hrs"}}, "note": "Calls of active or inactive are those of the source. No cut-off for these calls is given here.", "data": [{"molecule": "O=c1c2ccccc2[se]n1-c1cccc(C(F)(F)F)c1", "values": [{"measurement": "Activity", "setting": "SARS-CoV-2 [1]", "value": "Active"}, {"measurement": "Activity", "setting": "SARS-CoV-2 [2]", "value": "Active"}]}]}
